Measurements from patent US11691962B2 (eXIthera Pharmaceuticals, Inc., priority 2018, dated 2023).
pIC50: −log10 of the molar value.

Tests used:
Factor XIa = Factor XIa (Homo sapiens (Human), UniProt P03951); assay: Factor XIa enzyme inhibition assay (dose response, fluorogenic AMC substrate); format: biochemical; settings: read-out: hFXIa IC50
Method in brief: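 Fluorogenic progress curves (30 min, 1-min reads, 30° C) were recorded for 0.25 nM FXIa cleaving 50 μM Glp-Pro-Arg-AMC in Hepes pH 7.4 buffer with NaCl and Tween 20. Compounds were serially two-fold diluted, and IC50 was fitted with a Hill equation.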

[1] = Metabolic stability in dog hepatocytes; format: in vitro ADME; settings: pooled cryopreserved hepatocytes; beagle dog hepatocytes, 2 μM compound; read-out: Dog Hepatocyte Stability (t1/2)
Protocol: The following procedure was used to determine the stability of test compounds in beagle dog hepatocytes in a 96-well plate format. The test compounds, including the controls, imipramine and 7-ethoxycoumarin, were dissolved at 10 mM in DMSO, followed by further 5-fold dilution with DMSO to 2 mM. Pooled cryopreserved beagle dog hepatocytes were thawed and transferred into complete medium. Cells were gently centrifuged (700 rpm for 5 min) and the pellet rinsed with KHB (Krebs Henseleit buffer). Cells were resuspended, counted using Trypan blue, and adjusted to 1 million cells/mL in KHB buffer. The 2 mM compound stock solutions were diluted 10-fold with acetonitrile, followed by a further 50-fold dilution with KHB buffer. 200 μL of these compound solutions were transferred to 96-well polypropylene assay plates and an equal volume of the hepatocyte solution was added and mixed to initiate the reaction (final assay concentrations were 2 μM compound and 500,000 cells/mL). Assay plates were incubated at 37° C. in 5% CO2 with gentle agitation. 50 μL aliquots were removed at multiple time points out to 180 minutes and quenched with 6 volumes of cold acetonitrile (containing 250 ng/mL of carbutamide and chrysin as internal standards) to terminate the reaction and precipitate protein. Quenched samples were maintained on ice. The quenched samples were centrifuged at 2000×g (3100 rpm) for 10 minutes at 4° C. 50 μL aliquots of the supernatants were removed and diluted with 100 μL Milli-Q water to reduce the % organic content prior to bioanalysis by LC-MS/MS. Peak areas corresponding to the test compound were recorded. The compound remaining was calculated by comparing the peak area at each time point to time zero. Data were analyzed and results were calculated using Microsoft Excel 2010.

Factor XIa, sequence (P03951 388-625): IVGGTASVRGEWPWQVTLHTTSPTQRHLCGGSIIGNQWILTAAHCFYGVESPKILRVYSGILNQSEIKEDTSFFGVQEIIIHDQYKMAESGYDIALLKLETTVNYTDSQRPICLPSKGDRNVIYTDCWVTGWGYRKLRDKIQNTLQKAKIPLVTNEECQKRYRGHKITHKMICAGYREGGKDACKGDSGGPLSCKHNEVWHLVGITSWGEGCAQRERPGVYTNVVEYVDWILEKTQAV
Factor XIa, sequence (P03951 19-387 partner): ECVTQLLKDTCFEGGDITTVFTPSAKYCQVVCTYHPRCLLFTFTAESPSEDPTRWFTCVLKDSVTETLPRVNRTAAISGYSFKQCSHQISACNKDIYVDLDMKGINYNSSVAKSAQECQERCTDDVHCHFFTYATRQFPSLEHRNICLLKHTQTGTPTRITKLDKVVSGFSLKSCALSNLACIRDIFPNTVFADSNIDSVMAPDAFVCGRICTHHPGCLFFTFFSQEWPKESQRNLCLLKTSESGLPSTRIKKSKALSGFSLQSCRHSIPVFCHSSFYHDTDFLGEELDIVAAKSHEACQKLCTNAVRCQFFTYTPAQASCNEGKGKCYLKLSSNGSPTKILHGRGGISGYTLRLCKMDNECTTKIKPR

pIC50 (Factor XIa)	half-life at 2 μM [1]	Structure (SMILES)
7.00 to 8.00	> 4 h	CC[C@@H](NC(=O)N1C(=O)[C@H](Cc2cc(C)nc(N)c2)[C@H]1C(=O)N(C)c1cnn(C)c1)c1cccc(Cl)c1 [Compound 1-15, (2S,3R)-3-((2-amino-6-methylpyridin-4-yl)methyl)-N2-(1-methyl-1H-pyrazol-4-yl)-N1-((R)-1-(3-chlorophenyl)propyl)-N2-methyl-4-oxoazetidine-1,2-dicarboxamide]
> 8.00	2.02 to 4 h	CC[C@@H](NC(=O)N1C(=O)[C@H](Cc2ccnc(N)c2)[C@H]1C(=O)N(C)c1nccn1C)c1ccccc1 [Compound 1-13, (2S,3R)-3-((2-aminopyridin-4-yl)methyl)-N2-(1-methyl-1H-imidazol-2-yl)-N1-((R)-1-phenylpropyl)-N2-methyl-4-oxoazetidine-1,2-dicarboxamide]
7.00 to 8.00	1.02 to 2 h	CC[C@@H](NC(=O)N1C(=O)[C@H](Cc2ccnc(NC)c2)[C@H]1C(=O)N(C)c1nccn1C)c1cccc(Cl)c1 [Compound 1-41, (2S,3R)-3-((2-methylaminopyridin-4-yl)methyl)-N2-(1-methyl-1H-imidazol-2-yl)-N1-((R)-1-(3-chlorophenyl)propyl)-N2-methyl-4-oxoazetidine-1,2-dicarboxamide]
7.00 to 8.00	< 1 h	CC(C)[C@@H](NC(=O)N1C(=O)[C@H](Cc2ccnc(N)c2)[C@H]1C(=O)N(C)c1ccn(C)n1)C1CCCCC1 [Compound 1-57, (2S,3R)-3-((2-aminopyridin-4-yl)methyl)-N2-(1-methyl-1H-pyrazol-3-yl)-N1-((R)-1-cyclohexyl-2-methylpropyl)-N2-methyl-4-oxoazetidine-1,2-dicarboxamide]
> 8.00	2.02 to 4 h	CC[C@@H](NC(=O)N1C(=O)[C@H](Cc2cc(C)nc(N)c2)[C@H]1C(=O)N(C)c1ccnn1C)c1ccc(C)c(F)c1 [Compound 1-155, (2S,3R)-3-((2-amino-6-methylpyridin-4-yl)methyl)-N2-(1-methyl-1H-pyrazol-5-yl)-N1-((R)-1-(3-fluoro-4-methylphenyl)propyl)-N2-methyl-4-oxoazetidine-1,2-dicarboxamide]

Further lines, the compound ahead of its results:

Structure (SMILES)	pIC50 (Factor XIa)	half-life at 2 μM [1]
CC[C@@H](NC(=O)N1C(=O)[C@H](Cc2cc(C)nc(N)c2)[C@H]1C(=O)N(C)c1nccn1C)c1cc(F)ccc1F [Compound 1-137, (2S,3R)-3-((2-amino-6-methylpyridin-4-yl)methyl)-N2-(1-methyl-1H-imidazol-2-yl)-N1-((R)-1-(2,5-difluorophenyl)propyl)-N2-methyl-4-oxoazetidine-1,2-dicarboxamide]	> 8.00	> 4 h
CC[C@@H](NC(=O)N1C(=O)[C@H](Cc2cc(C)nc(N)c2)[C@H]1C(=O)N(C)c1ccnn1C)c1ccc(F)c(F)c1 [Compound 1-158, (2S,3R)-3-((2-amino-6-methylpyridin-4-yl)methyl)-N2-(1-methyl-1H-pyrazol-5-yl)-N1-((R)-1-(3,4-difluorophenyl)propyl)-N2-methyl-4-oxoazetidine-1,2-dicarboxamide]	> 8.00	2.02 to 4 h
CC[C@@H](NC(=O)N1C(=O)[C@H](Cc2cc(C)nc(NC)c2)[C@H]1C(=O)N(C)c1nccn1C)c1ccccc1 [Compound 1-45, (2S,3R)-3-((2-methylamino-6-methylpyridin-4-yl)methyl)-N2-(1-methyl-1H-imidazol-2-yl)-N1-((R)-1-phenylpropyl)-N2-methyl-4-oxoazetidine-1,2-dicarboxamide]	7.00 to 8.00	2.02 to 4 h
CC[C@@H](NC(=O)N1C(=O)[C@H](Cc2ccnc(N)c2)[C@H]1C(=O)N(C)c1cscn1)c1cccc(Cl)c1 [Compound 1-17, (2S,3R)-3-((2-aminopyridin-4-yl)methyl)-N2-(4-thiazolyl)-N1-((R)-1-(3-chlorophenyl)propyl)-N2-methyl-4-oxoazetidine-1,2-dicarboxamide]	> 8.00	1.02 to 2 h
C[C@@H](NC(=O)N1C(=O)[C@H](Cc2ccnc(N)c2)[C@H]1C(=O)N(C)c1ccn(C)n1)C1CCCCC1 [Compound 1-50, (2S,3R)-3-((2-aminopyridin-4-yl)methyl)-N2-(1-methyl-1H-pyrazol-3-yl)-N1-((R)-1-cyclohexylethyl)-N2-methyl-4-oxoazetidine-1,2-dicarboxamide]	7.00 to 8.00	1.02 to 2 h
CC[C@@H](NC(=O)N1C(=O)[C@H](Cc2ccnc(N)c2)[C@H]1C(=O)N(C)c1nccn1C)c1ccc(C)nc1 [Compound 1-81, (2S,3R)-3-((2-aminopyridin-4-yl)methyl)-N2-(1-methyl-1H-imidazol-2-yl)-N1-((R)-1-(6-methylpyridin-3-yl)propyl)-N2-methyl-4-oxoazetidine-1,2-dicarboxamide]	7.00 to 8.00	2.02 to 4 h
CC[C@@H](NC(=O)N1C(=O)[C@H](Cc2ccnc(N)c2)[C@H]1C(=O)N(C)c1cn(C)cn1)c1ccccc1 [Compound 1-90, (2S,3R)-3-((2-aminopyridin-4-yl)methyl)-N2-(1-methyl-1H-imidazol-4-yl)-N1-((R)-1-phenylpropyl)-N2-methyl-4-oxoazetidine-1,2-dicarboxamide]	> 8.00	2.02 to 4 h
CC[C@@H](NC(=O)N1C(=O)[C@H](Cc2ccnc(N)c2)[C@H]1C(=O)N(C)c1ccn(C)n1)c1ccccc1 [Compound 1-3, (2S,3R)-3-((2-aminopyridin-4-yl)methyl)-N2-(1-methyl-1H-pyrazol-3-yl)-N1-((R)-1-phenylpropyl)-N2-methyl-4-oxoazetidine-1,2-dicarboxamide]	> 8.00	> 4 h
CC[C@@H](NC(=O)N1C(=O)[C@H](Cc2cc(C)nc(NC)c2)[C@H]1C(=O)N(C)c1nccn1C)c1cccc(Cl)c1 [Compound 1-46, (2S,3R)-3-((2-methylamino-6-methylpyridin-4-yl)methyl)-N2-(1-methyl-1H-imidazol-2-yl)-N1-((R)-1-(3-chlorophenyl)propyl)-N2-methyl-4-oxoazetidine-1,2-dicarboxamide]	> 8.00	1.02 to 2 h
CN(C(=O)[C@@H]1[C@@H](Cc2ccnc(N)c2)C(=O)N1C(=O)N[C@@H](C1CCCCC1)C(F)(F)F)c1ccn(C)n1 [Compound 1-32, (2S,3R)-3-((2-aminopyridin-4-yl)methyl)-N2-(1-methyl-1H-pyrazol-3-yl)-N1-((S)-1-cyclohexyl-2,2,2-trifluoroethyl)-N2-methyl-4-oxoazetidine-1,2-dicarboxamide]	> 8.00	< 1 h
